Experimental data reported in PubChem BioAssay AID330 (DTP/NCI, 2004).
Values joined by “and” are separate entries in the source; they are usually repeats but may differ in a detail not shown here. Equal values may be shown once. Toxic doses and inconclusive results are not listed. Rule for the calls: active = survival T/C of 150% or more; inactive = T/C below 125% in these data.

Tested on: P388 leukemia ip, CD2F1 mice, survival T/C
Test: NCI In Vivo Anticancer Drug Screen. Data for tumor model P388 Leukemia (intraperitoneal) in CD2F1 (CDF1) mice
Conditions: endpoint: median survival time, higher = longer survival
Method in brief: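 Mice carrying the transplanted tumor received test compound or vehicle. Survival was recorded in each group, and the value is the treated-group measurement divided by that of the vehicle-treated control group.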

[1] = dose: 12.5 mg/kg/injection, schedule: Q01DX009 (ip), vehicle: Klucel (hydroxypropylcellulose) (HPC)
[2] = dose: 25.0 mg/kg/injection, schedule: Q01DX009 (ip), vehicle: Klucel (hydroxypropylcellulose) (HPC)
[3] = dose: 50.0 mg/kg/injection, schedule: Q01DX009 (ip), vehicle: Klucel (hydroxypropylcellulose) (HPC)
[4] = dose: 100.0 mg/kg/injection, schedule: Q01DX009 (ip), vehicle: Klucel (hydroxypropylcellulose) (HPC)
[5] = dose: 25.0 mg/kg/injection, schedule: Q01DX009 (ip), vehicle: saline
[6] = dose: 50.0 mg/kg/injection, schedule: Q01DX009 (ip), vehicle: saline
[7] = dose: 100.0 mg/kg/injection, schedule: Q01DX009 (ip), vehicle: saline
[8] = dose: 200.0 mg/kg/injection, schedule: Q01DX009 (ip), vehicle: saline
[9] = dose: 25.0 mg/kg/injection, schedule: Q01DX009 (ip), vehicle: saline with Tween-80
[10] = dose: 50.0 mg/kg/injection, schedule: Q01DX009 (ip), vehicle: saline with Tween-80
[11] = dose: 100.0 mg/kg/injection, schedule: Q01DX009 (ip), vehicle: saline with Tween-80
[12] = dose: 200.0 mg/kg/injection, schedule: Q01DX009 (ip), vehicle: saline with Tween-80
[13] = dose: 50.0 mg/kg/injection, schedule: Q01DX005 (ip), vehicle: saline with Tween-80
[14] = dose: 100.0 mg/kg/injection, schedule: Q01DX005 (ip), vehicle: saline with Tween-80
[15] = dose: 60.0 mg/kg/injection, schedule: Q01DX005 (ip), vehicle: saline with Tween-80
[16] = dose: 120.0 mg/kg/injection, schedule: Q01DX005 (ip), vehicle: saline with Tween-80
[17] = dose: 240.0 mg/kg/injection, schedule: Q01DX005 (ip), vehicle: saline with Tween-80
[18] = dose: 50.0 mg/kg/injection, schedule: Q01DX005 (ip), vehicle: saline
[19] = dose: 100.0 mg/kg/injection, schedule: Q01DX005 (ip), vehicle: saline
[20] = dose: 200.0 mg/kg/injection, schedule: Q01DX005 (ip), vehicle: saline
[21] = dose: 200.0 mg/kg/injection, schedule: Q01DX009 (ip), vehicle: Klucel (hydroxypropylcellulose) (HPC)

Measured: T/C

C=C1C(=O)OC2/C=C(\C)C(O)C/C=C(/C)C(OC(=O)/C(C)=C\C)C(O)C12 (stereo not drawn)
inactive: dose: 6125.0 micrograms/kg/injection, schedule: Q01DX005 (ip), vehicle: Klucel (hydroxypropylcellulose) (HPC) 110 % of control | dose: 12250.0 micrograms/kg/injection, schedule: Q01DX005 (ip), vehicle: Klucel (hydroxypropylcellulose) (HPC) 115 % of control | dose: 24500.0 micrograms/kg/injection, schedule: Q01DX005 (ip), vehicle: Klucel (hydroxypropylcellulose) (HPC) 109 % of control | dose: 49000.0 micrograms/kg/injection, schedule: Q01DX005 (ip), vehicle: Klucel (hydroxypropylcellulose) (HPC) 114 % of control

CN1C(=O)c2ccccc2NC12CCN(Cc1ccccc1)CC2
inactive: dose: 25.0 mg/kg/injection, schedule: Q01DX005 (ip), vehicle: Klucel (hydroxypropylcellulose) (HPC) 103 % of control | dose: 50.0 mg/kg/injection, schedule: Q01DX005 (ip), vehicle: Klucel (hydroxypropylcellulose) (HPC) 95 % of control | dose: 100.0 mg/kg/injection, schedule: Q01DX005 (ip), vehicle: Klucel (hydroxypropylcellulose) (HPC) 97 % of control

COc1cc2c(cc1OC)C1CC(=O)CCN1CC2 (stereo not drawn)
inactive: [1] 111 % of control | [2] 106 % of control | [3] 101 % of control | [4] 107 % of control

CCCN(CCC)CC(=O)Nc1c(Cl)cccc1Cl
inactive: [5] 100 % of control | [6] 110 % of control | [7] 105 % of control

COC(=O)C1C(O)C(C)C(O)C(C)/C=C\C=C(C)C(=O)Nc2c(C)c(OC(C)=O)c3c(c2O)C(=O)C(C)=C2OCOC(=C23)C(C)=CC(C)(O)C(O)C(C)C1O (stereo not drawn)
inactive: [5] 107 % of control | [6] 107 % of control | [7] 107 % of control | [8] 89 % of control

c1ccc2cc(SCCCN3CCOCC3)ccc2c1
inactive: dose: 50.0 mg/kg/injection, schedule: Q01DX009 (ip), vehicle: saline sonified 100 % of control | dose: 100.0 mg/kg/injection, schedule: Q01DX009 (ip), vehicle: saline sonified 104 % of control | dose: 200.0 mg/kg/injection, schedule: Q01DX009 (ip), vehicle: saline sonified 100 % of control

CC(=O)c1ccc(NN=NCCCl)cc1
inactive: dose: 12.5 mg/kg/injection, schedule: Q01DX009 (ip), vehicle: distilled water + Tween-80 98 % of control | dose: 25.0 mg/kg/injection, schedule: Q01DX009 (ip), vehicle: distilled water + Tween-80 100 % of control | dose: 50.0 mg/kg/injection, schedule: Q01DX009 (ip), vehicle: distilled water + Tween-80 104 % of control | dose: 100.0 mg/kg/injection, schedule: Q01DX009 (ip), vehicle: distilled water + Tween-80 104 % of control | dose: 200.0 mg/kg/injection, schedule: Q01DX009 (ip), vehicle: distilled water + Tween-80 107 % of control

CC(=O)N(C)N=Nc1ccc(C)cc1
inactive: [6] 100 % of control and 121 % of control and 123 % of control | [7] 100 % of control and 118 % of control and 121 % of control

O=C(c1ccncc1)c1cc(Cl)c(Cl)cc1Cl
inactive: dose: 50.0 mg/kg/injection, schedule: Q04DX002 (ip), vehicle: saline with Tween-80 102 % of control | dose: 100.0 mg/kg/injection, schedule: Q04DX002 (ip), vehicle: saline with Tween-80 93 % of control | dose: 200.0 mg/kg/injection, schedule: Q04DX002 (ip), vehicle: saline with Tween-80 111 % of control

Cn1c(=O)c2conc2n(-c2ccc(Cl)cc2)c1=O
inactive: [9] 100 % of control | [10] 103 % of control | [11] 95 % of control

Nc1ccc(-c2cc3ccc(C4=NCCN4)cc3[nH]2)cc1
inactive: dose: 60.0 mg/kg/injection, schedule: Q01DX005 (ip), vehicle: Klucel (hydroxypropylcellulose) (HPC) 117 % of control

Cc1cccn2c([N+](=O)[O-])cnc12
inactive: [10] 102 % of control | [11] 120 % of control | [12] 113 % of control

CC12CCCCC1=Nc1ccc3ccccc3c12 (stereo not drawn)
inactive: dose: 12.5 mg/kg/injection, schedule: Q01DX009 (ip), vehicle: saline with Tween-80 92 % of control | [9] 90 % of control | [10] 92 % of control

Cc1ccccc1N=Nc1ccc(N=Nc2cc(CN(C)C)c(O)c3ncccc23)c(C)c1
inactive: [13] 102 % of control | [14] 95 % of control | dose: 200.0 mg/kg/injection, schedule: Q01DX005 (ip), vehicle: saline with Tween-80 109 % of control

CC(C)=NNC(=O)CNc1cccc(C(F)(F)F)c1
inactive: [15] 97 % of control | [16] 100 % of control | [17] 106 % of control

S=c1[nH]ccn1-c1c(Cl)cccc1Cl
inactive: [3] 99 % of control | [4] 100 % of control

CCOC(=O)c1[nH]cc(C)c1-c1ccc(OCc2ccccc2)cc1
inactive: dose: 100.0 mg/kg/injection, schedule: Q01DX001 (ip), vehicle: saline with Tween-80 112 % of control | dose: 200.0 mg/kg/injection, schedule: Q01DX001 (ip), vehicle: saline with Tween-80 94 % of control | dose: 400.0 mg/kg/injection, schedule: Q01DX001 (ip), vehicle: saline with Tween-80 103 % of control

CCOC(=O)C1C(c2cccc(OC)c2O)c2cc3c(cc2OC1(C)N1CCCC1)OCO3 (stereo not drawn)
inactive: [15] 99 % of control | [16] 92 % of control | [17] 89 % of control

NC(=O)c1csc([C@@H](O)Cc2ccccc2)n1
inactive: [15] 105 % of control | [16] 106 % of control | [17] 106 % of control

O=C1NC(=O)/C(=C\c2ccco2)S1
inactive: dose: 6.25 mg/kg/injection, schedule: Q01DX009 (ip), vehicle: Klucel (hydroxypropylcellulose) (HPC) 98 % of control | [1] 89 % of control | [2] 94 % of control

CC(C)C1=CC23CCC4C(C)(C(=O)O)CCCC4(C)C2CC1C(C(=O)O)C3C(=O)O (stereo not drawn)
inactive: [18] 97 % of control | [19] 96 % of control | [20] 98 % of control

CCCCN(S(=O)(=O)c1ccc(C)cc1)S(=O)(=O)c1ccc(C)cc1
inactive: [11] 120 % of control | [12] 106 % of control | dose: 400.0 mg/kg/injection, schedule: Q01DX009 (ip), vehicle: saline with Tween-80 87 % of control

Clc1ccc(C2SC=Cc3ccccc32)cc1 (stereo not drawn)
inactive: [1] 105 % of control and 113 % of control | [2] 105 % of control and 115 % of control | [3] 104 % of control and 112 % of control | [4] 116 % of control and 122 % of control | [21] 122 % of control and 95 % of control

Fc1cccc(CSc2ncnc3nc[nH]c23)c1
inactive: [9] 104 % of control | dose: 25.0 mg/kg/injection, schedule: Q04DX003 (ip), vehicle: saline with Tween-80 95 % of control | [10] 95 % of control | dose: 50.0 mg/kg/injection, schedule: Q04DX003 (ip), vehicle: saline with Tween-80 90 % of control | [11] 104 % of control | dose: 100.0 mg/kg/injection, schedule: Q04DX003 (ip), vehicle: saline with Tween-80 100 % of control and 104 % of control | dose: 200.0 mg/kg/injection, schedule: Q04DX003 (ip), vehicle: saline with Tween-80 100 % of control

O=[N+]([O-])C(c1ccccc1)C(c1ccccc1)[N+](=O)[O-] (stereo not drawn)
inactive: dose: 12.5 mg/kg/injection, schedule: Q01DX005 (ip), vehicle: saline with Tween-80 98 % of control | dose: 25.0 mg/kg/injection, schedule: Q01DX005 (ip), vehicle: saline with Tween-80 101 % of control | [13] 109 % of control and 112 % of control and 119 % of control | [14] 109 % of control and 110 % of control

CC(C)(C)C1CO1 (stereo not drawn)
inactive: [18] 103 % of control | [19] 108 % of control | [20] 110 % of control

[O-][n+]1cccc(O)c1
inactive: [5] 100 % of control and 102 % of control | [6] 102 % of control and 108 % of control | [7] 102 % of control and 92 % of control | [8] 100 % of control and 108 % of control | dose: 400.0 mg/kg/injection, schedule: Q01DX009 (ip), vehicle: saline 103 % of control and 97 % of control | dose: 600.0 mg/kg/injection, schedule: Q01DX009 (ip), vehicle: saline 108 % of control and 117 % of control

C[n+]1ccc(C[n+]2ccccc2)c2ccccc21
inactive: [18] 104 % of control | [19] 100 % of control | [20] 96 % of control

CCCCCCCCCCCCCCOC(=O)c1ccc(O)cc1
inactive: [3] 94 % of control | [4] 101 % of control | [21] 89 % of control
